In US20160311791A1, “NOVEL TRICYCLIC CALCIUM SENSING RECEPTOR ANTOGONISTS FOR THE TREATMENT OF OSTEOPOSOSIS” (MERCK SHARP & DOHME CORP., priority 2013, published 2016):
Where two headings read alike, the source gives them in different places.

Target: T1, human CaSR (Homo sapiens, UniProt P41180)
T1 sequence (P41180 20-1078): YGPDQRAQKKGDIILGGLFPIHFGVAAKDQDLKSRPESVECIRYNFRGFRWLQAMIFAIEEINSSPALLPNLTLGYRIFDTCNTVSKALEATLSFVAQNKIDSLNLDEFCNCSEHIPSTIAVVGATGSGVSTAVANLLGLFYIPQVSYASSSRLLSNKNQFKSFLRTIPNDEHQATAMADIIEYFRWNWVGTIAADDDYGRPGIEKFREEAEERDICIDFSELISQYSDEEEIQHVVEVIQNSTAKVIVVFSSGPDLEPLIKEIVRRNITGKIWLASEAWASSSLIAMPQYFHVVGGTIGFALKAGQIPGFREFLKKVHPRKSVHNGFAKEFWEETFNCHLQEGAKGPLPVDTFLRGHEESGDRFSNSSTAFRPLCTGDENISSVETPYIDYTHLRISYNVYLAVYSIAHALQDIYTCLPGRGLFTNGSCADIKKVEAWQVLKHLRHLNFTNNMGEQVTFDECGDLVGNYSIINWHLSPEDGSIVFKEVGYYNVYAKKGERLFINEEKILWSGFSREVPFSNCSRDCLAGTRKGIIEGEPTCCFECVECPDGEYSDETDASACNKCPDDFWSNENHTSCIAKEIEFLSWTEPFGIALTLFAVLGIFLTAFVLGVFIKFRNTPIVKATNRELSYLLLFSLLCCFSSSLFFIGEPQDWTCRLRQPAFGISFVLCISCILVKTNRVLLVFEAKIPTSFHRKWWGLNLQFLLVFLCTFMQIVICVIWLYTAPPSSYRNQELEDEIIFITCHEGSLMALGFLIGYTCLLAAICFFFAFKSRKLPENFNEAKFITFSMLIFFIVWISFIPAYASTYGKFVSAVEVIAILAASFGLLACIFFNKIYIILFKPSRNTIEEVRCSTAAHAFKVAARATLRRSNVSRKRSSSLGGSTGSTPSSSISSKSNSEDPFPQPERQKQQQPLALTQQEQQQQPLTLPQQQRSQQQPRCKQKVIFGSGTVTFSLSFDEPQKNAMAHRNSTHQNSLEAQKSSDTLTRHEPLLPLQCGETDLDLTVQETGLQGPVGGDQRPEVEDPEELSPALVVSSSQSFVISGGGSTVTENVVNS
Test: CaSR FLIPR assay (calcilytic activity)
Type: cell-based
Set-up: expressed in transfected cells
Method in brief: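 Calcium flux in HEK293 cells stably expressing human CaSR, loaded with Calcium 4 dye for 1 h at 37° C, read on FLIPR. Compounds in 0.5% DMSO (10-point, 3-fold series) added first, then CaCl2 at 1 mM final. Buffer: 20 mM HEPES pH 7.4, HBSS, 0.4 mM CaCl2, Mg salts.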

[1] = HEK293 cells stably expressing human recombinant CaSR, 1 mM CaCl2 agonist, Tables 1-24, read-out: FLIPR ASSAY IC50
[2] = summary table, read-out: FLIPR CaSR (IC50)

| Compound | IC50 [1] [nM] | IC50 [2] [nM] |
| --- | --- | --- |
| C[C@@H](OC[C@H](O)CNC(C)(C)Cc1ccc2ccccc2c1)c1cccc2c1O[C@@H]1[C@@H](C(=O)O)[C@H]21 [Example 1-1] | 26 | 22 |
| CSc1ccc(CC(C)(C)NC[C@@H](O)CO[C@H](C)c2ccc(C)c3c2C2[C@H](O3)[C@H]2C(=O)O)cc1F (stereo partly drawn) [Example 8-24] | 21 | 20 |
| C[C@@H](OC[C@H](O)CNC(C)(C)Cc1ccc2ccccc2c1)c1cccc2c1[C@@H]1[C@H](O2)[C@H]1C(=O)O [Example 5-1] | 9 | 9 |
